Counter-ions that a name gives are not always drawn. Like-named read-outs stand apart in the source and are kept apart here.

Experimental findings from patent US10766903B2 (ALMAC DISCOVERY LIMITED, priority 2016, dated 2020) are described below.

The experiment has as its target USP7 (Homo sapiens (Human), UniProt Q93009). As to the kind of experiment: USP7 fluorescence polarisation (FP) biochemical assay, ubiquitin-Lys-TAMRA substrate. The method, boiled down:
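Full-length His6-USP7 (2.5 nM) incubated ± inhibitor (8-point dilutions, 200 to 0.1 μM before addition) in 50 mM HEPES pH 7.2, 150 mM NaCl, 0.5 mM EDTA, 5 mM DTT, 0.05% BSA, 0.05% CHAPS. Ubiquitin-Lys-TAMRA cleavage followed by FP (ex 530/em 575 nm) every 15 min for 1.5 h; normalised to no-compound control.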
(Fluorescence polarisation rises when a labelled molecule tumbles more slowly, as on binding a larger partner.)

[1] abbreviates: Table 4, biochemical assay, average of at least duplicate experiments, read-out: USP7 IC50.
The mark [2] stands for this setting: USP7 IC50, Table 4, biochemical assay, average of at least duplicate experiments.

Chain of USP7 (Q93009 whole entry): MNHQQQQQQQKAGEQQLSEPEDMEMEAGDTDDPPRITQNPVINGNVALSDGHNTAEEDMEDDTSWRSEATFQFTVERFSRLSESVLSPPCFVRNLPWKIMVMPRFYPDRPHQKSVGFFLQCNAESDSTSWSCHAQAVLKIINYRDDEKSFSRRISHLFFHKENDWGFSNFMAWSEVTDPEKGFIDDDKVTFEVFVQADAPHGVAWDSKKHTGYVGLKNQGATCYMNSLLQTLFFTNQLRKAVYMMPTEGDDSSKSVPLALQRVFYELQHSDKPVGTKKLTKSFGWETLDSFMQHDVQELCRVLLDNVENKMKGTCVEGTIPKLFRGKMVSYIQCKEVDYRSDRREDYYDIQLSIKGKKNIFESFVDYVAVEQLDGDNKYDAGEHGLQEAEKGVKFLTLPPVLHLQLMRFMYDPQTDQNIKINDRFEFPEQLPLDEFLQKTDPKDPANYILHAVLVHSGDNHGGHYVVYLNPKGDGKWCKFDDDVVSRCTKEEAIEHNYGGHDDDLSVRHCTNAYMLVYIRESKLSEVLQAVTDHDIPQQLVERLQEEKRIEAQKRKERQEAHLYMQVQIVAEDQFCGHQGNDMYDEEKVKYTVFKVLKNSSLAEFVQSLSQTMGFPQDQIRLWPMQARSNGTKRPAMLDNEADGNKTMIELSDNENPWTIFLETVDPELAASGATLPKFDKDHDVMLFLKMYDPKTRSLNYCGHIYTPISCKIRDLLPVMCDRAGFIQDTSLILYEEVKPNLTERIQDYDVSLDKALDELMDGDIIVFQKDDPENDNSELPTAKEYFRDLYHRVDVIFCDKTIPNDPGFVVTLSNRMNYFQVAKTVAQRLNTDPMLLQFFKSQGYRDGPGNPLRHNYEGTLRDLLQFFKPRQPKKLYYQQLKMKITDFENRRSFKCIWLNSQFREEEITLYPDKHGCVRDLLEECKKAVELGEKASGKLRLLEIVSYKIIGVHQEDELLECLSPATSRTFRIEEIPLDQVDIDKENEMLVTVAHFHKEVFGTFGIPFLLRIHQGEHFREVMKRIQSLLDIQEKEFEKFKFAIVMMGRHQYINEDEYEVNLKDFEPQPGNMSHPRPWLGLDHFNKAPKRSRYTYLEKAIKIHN

The IC50 is the point on the concentration scale where inhibition reaches its midpoint. Consider `CN1CC=C(c2c3ncn(CC4(O)CCN(C(=O)C[C@H](c5ccccc5)C(F)(F)F)CC4)c(=O)c3nn2C)CC1` [Example 130, (R)-6-((4-Hydroxy-1-(4,4,4-trifluoro-3-phenylbutanoyl)piperidin-4-yl)methyl)-2-methyl-3-(1-methyl-1,2,3,6-tetrahydropyridin-4-yl)-2H-pyrazolo[4,3-d]pyrimidin-7(6H)-one], for which the IC50 under setting [1] is 1 to 200 µM.
The same measure, in the same setting: in the case of `C[C@H](CC(=O)N1CCC(O)(Cn2cnc(N3CCC4(CCOC4)C3)cc2=O)CC1)c1ccccc1` (stereo partly drawn) [Example 152, 3-((4-hydroxy-1-((R)-3-phenylbutanoyl)piperidin-4-yl)methyl)-6-(2-oxa-7-azaspiro[4.4]nonan-7-yl)pyrimidin-4(3H)-one] it was 1 to 200 µM.
In the case of `C[C@H](CC(=O)N1CCC(O)(Cn2cnc(N3CC4(CCOCC4)C3)cc2=O)CC1)c1ccccc1` [Example 174, (R)-3-((4-hydroxy-1-(3-phenylbutanoyl)piperidin-4-yl)methyl)-6-(7-oxa-2-azaspiro[3.5]nonan-2-yl)pyrimidin-4(3H)-one], the IC50 under setting [2] is 0.25 to 0.999 µM.
As to `CC(=O)N(CCN1CCCC1)c1cc(=O)n(CC2(O)CCN(C(=O)C[C@@H](C)c3ccccc3)CC2)cn1` [Example 113, (R)—N-(1-((4-Hydroxy-1-(3-phenylbutanoyl)piperidin-4-yl)methyl)-6-oxo-1,6-dihydropyrimidin-4-yl)-N-(2-(pyrrolidin-1-yl)ethyl)acetamide, Formic Acid], the IC50 under setting [1] was in the range of 1 to 200 µM.
On the same count and under the same terms, in the case of `CC1(C(=O)N2CCC(O)(Cn3cnc4c(cc(C#N)n4-c4ccccc4)c3=O)CC2)CC1` [Example 234, 3-((4-Hydroxy-1-(1-methylcyclopropanecarbonyl)piperidin-4-yl)methyl)-4-oxo-7-phenyl-4,7-dihydro-3H-pyrrolo[2,3-d]pyrimidine-6-carbonitrile] it was less than 0.25 µM.
Still for that read-out and setting: in the case of `C[C@H](CC(=O)N1CCC(O)(Cn2cnc3c(-c4ccc(C(=O)O)cc4)n(C)nc3c2=O)CC1)c1ccccc1` [Example 243, (R)-4-(6-((4-Hydroxy-1-(3-phenylbutanoyl)piperidin-4-yl)methyl)-2-methyl-7-oxo-6,7-dihydro-2H-pyrazolo[4,3-d]pyrimidin-3-yl)benzoic Acid] it was 1 to 200 µM.
On the same count and under the same terms, in the case of `CNc1nc2ncn(CC3(O)CCN(C(=O)CCc4ccccc4)CC3)c(=O)c2s1` [Example 93, 6-((4-Hydroxy-1-(3-phenylpropanoyl)piperidin-4-yl)methyl)-2-(methylamino)thiazolo[4,5-d]pyrimidin-7(6H)-one] it was 1 to 200 µM.
As for `C[C@H](CC(=O)N1CCC(O)(Cn2cnc3c(C(F)(F)F)n(C)nc3c2=O)CC1)c1ccccc1` [Example 23, (R)-6-((4-Hydroxy-1-(3-phenylbutanoyl)piperidin-4-yl)methyl)-2-methyl-3-(trifluoromethyl)-2H-pyrazolo[4,3-d]pyrimidin-7(6H)-one], the IC50 runs as follows: (USP7 IC50, Table 3, effect of the R2 substituent) 0.6 µM; under setting [2], 0.25 to 0.999 µM.
Take `C[C@H](CC(=O)N1CCC(O)(Cn2cnc(-c3cnn(C)c3)cc2=O)CC1)c1ccccc1` [Example 40, (R)-3-((4-Hydroxy-1-(3-phenylbutanoyl)piperidin-4-yl)methyl)-6-(1-methyl-1H-pyrazol-4-yl)pyrimidin-4(3H)-one]: the IC50 under setting [2] is 0.25 to 0.999 µM.
Turning to `Cc1nc2c(=O)n(CC3(O)CCN(C(=O)C[C@H](c4ccccc4)C(F)(F)F)CC3)cnc2n1-c1ccccc1` [Example 189, (R)-1-((4-Hydroxy-1-(4,4,4-trifluoro-3-phenylbutanoyl)piperidin-4-yl)methyl)-8-methyl-9-phenyl-1H-purin-6(9H)-one], under setting [2], the IC50 fell in the range of 0.25 to 0.999 µM.
For `Cn1cc(C(=O)N2CCC(O)(Cn3cnc4c(cc(Cl)n4-c4cccc(C5CC5)c4)c3=O)CC2)cn1` [Example 219, 6-Chloro-7-(3-cyclopropylphenyl)-3-((4-hydroxy-1-(1-methyl-1H-pyrazole-4-carbonyl)piperidin-4-yl)methyl)-3H-pyrrolo[2,3-d]pyrimidin-4(7H)-one], the 50% inhibitory concentration (IC50) under setting [1] is less than 0.25 µM.
As to `C[C@H](CC(=O)N1CCC(O)(Cn2cnc(NCCN3CC[C@H](F)C3)cc2=O)CC1)c1ccccc1` [Example 74, 6-((2-((S)-3-Fluoropyrrolidin-1-yl)ethyl)amino)-3-((4-hydroxy-1-((R)-3-phenylbutanoyl)piperidin-4-yl)methyl)pyrimidin-4(3H)-one, Formic Acid], the IC50 under setting [2] was 0.25 to 0.999 µM.
Regarding `CC(=O)NCCNc1cc(=O)n(CC2(O)CCN(C(=O)C[C@@H](C)c3ccccc3)CC2)cn1` [Example 143, (R)-N-(2-((1-((4-hydroxy-1-(3-phenylbutanoyl)piperidin-4-yl)methyl)-6-oxo-1,6-dihydropyrimidin-4-yl)amino)ethyl)acetamide], the IC50 under setting [1] is 1 to 200 µM.
Turning to `Cn1cc(C(=O)N2CCC(O)(Cn3cnc4c(cc(Cl)n4-c4ccccc4)c3=O)CC2)cn1` [Example 216, 6-Chloro-3-((4-hydroxy-1-(1-methyl-1H-pyrazole-4-carbonyl)piperidin-4-yl)methyl)-7-phenyl-3H-pyrrolo[2,3-d]pyrimidin-4(7H)-one], the IC50 under setting [1] lay within 0.25 to 0.999 µM.
Still for that read-out and setting: then `C[C@H](CC(=O)N1CCC(O)(Cn2cnc(NC[C@@H](C)N3CCCC3)cc2=O)CC1)c1ccccc1` [Example 58, 3-((4-Hydroxy-1-((R)-3-phenylbutanoyl)piperidin-4-yl)methyl)-6-(((R)-2-(pyrrolidin-1-yl)propyl)amino)pyrimidin-4(3H)-one], with less than 0.25 µM.
On the same count and under the same terms, in the case of `C[C@H](CC(=O)N1CCC(O)(Cn2cnc3c(-c4ccc(C5(N)CCC5)cc4)n(C)nc3c2=O)CC1)c1ccccc1` [Example 182, (R)-3-(4-(1-Aminocyclobutyl)phenyl)-6-((4-hydroxy-1-(3-phenylbutanoyl)piperidin-4-yl)methyl)-2-methyl-2H-pyrazolo[4,3-d]pyrimidin-7(6H)-one] it was less than 0.25 µM.
As for `[2H]C1([2H])Oc2ccc(-n3c(Cl)cc4c(=O)n(CC5(O)CCN(C(=O)C6(C)CC6)CC5)cnc43)cc2O1` [Example 235, 7-(Benzo[d][1,3]dioxol-5-yl-2,2-d2)-6-chloro-3-((4-hydroxy-1-(1-methylcyclopropane-1-carbonyl)piperidin-4-yl)methyl)-3,7-dihydro-4H-pyrrolo[2,3-d]pyrimidin-4-one], the IC50 under setting [1] is less than 0.25 µM.
Same read-out and setting: in the case of `C[C@H](CC(=O)N1CCC(O)(Cn2cnc(NCc3ccnn3C)cc2=O)CC1)c1ccccc1` [Example 154, (R)-3-((4-hydroxy-1-(3-phenylbutanoyl)piperidin-4-yl)methyl)-6-(((1-methyl-1H-pyrazol-5-yl)methyl)amino)pyrimidin-4(3H)-one] it was 1 to 200 µM; in that of `C[C@H](CC(=O)N1CCC(O)(Cn2cnc(NC3CCCC[C@H]3N)cc2=O)CC1)c1ccccc1` (mixture of isomers) [Example 63, rac-6-(((±-trans-1,2)-2-Aminocyclohexyl)amino)-3-((4-hydroxy-1-((R)-3-phenylbutanoyl)piperidin-4-yl)methyl)pyrimidin-4(3H)-one, Formic Acid], 0.25 to 0.999 µM; in that of `O=C(c1cnc(C2CC2)o1)N1CCC(O)(Cn2cnc3c(cc(Cl)n3-c3ccc(C4CC4)cc3)c2=O)CC1` [Example 221, 6-Chloro-3-((1-(2-cyclopropyloxazole-5-carbonyl)-4-hydroxypiperidin-4-yl)methyl)-7-(4-cyclopropylphenyl)-3H-pyrrolo[2,3-d]pyrimidin-4(7H)-one], less than 0.25 µM.
Same read-out and setting: in the case of `C[C@H](CC(=O)N1CCC(O)(Cn2cnc(N3CCN(Cc4ccccn4)CC3)cc2=O)CC1)c1ccccc1` [Example 159, (R)-3-((4-hydroxy-1-(3-phenylbutanoyl)piperidin-4-yl)methyl)-6-(4-(pyridin-2-ylmethyl)piperazin-1-yl)pyrimidin-4(3H)-one] it was 1 to 200 µM.
Same read-out and setting: then `CS(=O)(=O)c1nc2ncn(CC3(O)CCN(C(=O)CCc4ccccc4)CC3)c(=O)c2s1` [Example 92, 6-((4-Hydroxy-1-(3-phenylpropanol)piperidin-4-yl)methyl)-2-(methylsulfonyl)thiazolo[4,5-d]pyrimidin-7(6H)-one], with 1 to 200 µM.
As for `C[C@H](CC(=O)N1CCC(O)(Cn2cnc(N3CCC4(CCNC4)CC3)cc2=O)CC1)c1ccccc1` [Example 49, (R)-3-((4-Hydroxy-1-(3-phenylbutanoyl)piperidin-4-yl)methyl)-6-(2,8-diazaspiro[4.5]decan-8-yl)pyrimidin-4(3H)-one hydrochloride], the IC50 under setting [2] was 0.25 to 0.999 µM.
As for `Cn1nc2c(=O)n(CC3(O)CCN(C(=O)C[C@H](c4ccccc4)C(F)(F)F)CC3)cnc2c1-c1ccc(CN2CCOCC2)cc1` [Example 137, (R)-6-((4-Hydroxy-1-(4,4,4-trifluoro-3-phenylbutanoyl)piperidin-4-yl)methyl)-2-methyl-3-(4-(morpholinomethyl)phenyl)-2H-pyrazolo[4,3-d]pyrimidin-7(6H)-one], the IC50 under setting [1] is less than 0.25 µM.
Turning to `C[C@H](CC(=O)N1CCC(O)(Cn2cnc(N3C[C@H]4C[C@@H]3CN(C)C4)cc2=O)CC1)c1ccccc1` (single isomer, unassigned) [Example 181], under setting [2], the IC50 is 0.25 to 0.999 µM.
On to `Cc1nn(C)cc1Nc1cc(=O)n(CC2(O)CCN(C(=O)C[C@@H](C)c3ccccc3)CC2)cn1` [Example 170, (R)-6-((1,3-dimethyl-1H-pyrazol-4-yl)amino)-3-((4-hydroxy-1-(3-phenylbutanoyl)piperidin-4-yl)methyl)pyrimidin-4(3H)-one], for which the IC50 under setting [1] is 1 to 200 µM.
The same measure, in the same setting: in the case of `CNCc1ccc(-c2c3ncn(CC4(O)CCN(C(=O)C[C@H](c5ccccc5)C(F)(F)F)CC4)c(=O)c3nn2C)cc1` [Example 83, (R)-6-((4-Hydroxy-1-(4,4,4-trifluoro-3-phenylbutanoyl)piperidin-4-yl)methyl)-2-methyl-3-(4-((methylamino)methyl)phenyl)-2H-pyrazolo[4,3-d]pyrimidin-7(6H)-one] it was less than 0.25 µM.
